Among the data in PubChem BioAssay (NCI) are TGI values, retold here.

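Dose response: 5 concentrations. Exposure: 48 h. Format: 96-well plates. Endpoint: linear interpolation; highest concentration if not reached. TGI marks complete inhibition of growth.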

Some test systems named below: OVCAR-5 ovarian; OVCAR-3 ovarian; CAKI-1 renal; UO-31 renal; A549 NSCLC; CCRF-CEM leukemia; MALME-3M melanoma; SK-MEL-28 melanoma; SK-OV-3 ovarian; HOP-62 NSCLC.
Holding throughout (assay): NCI anticancer screen, dose series, 48 h

On to `CN1C(c2ccccc2)CC(O)CC1c1ccccc1` (stereo not given), for which the TGI with OVCAR-5 ovarian, in the assay with OVCAR-3 ovarian, in the assay on CAKI-1 renal, in the assay with UO-31 renal, in the assay on A549 NSCLC and in the assay with CCRF-CEM leukemia was over 100 µM throughout. Moreover, the TGI with MALME-3M melanoma, in the assay on SK-MEL-28 melanoma, in the assay on SK-OV-3 ovarian and with HOP-62 NSCLC was over 100 µM in each case.
In the case of `CC1(C)CCC[C@@]2(C)C1CC[C@@]1(CO)O[C@H](C3=CC(=O)OC3O)C[C@H]12` (stereo not given in full), the TGI in the assay with OVCAR-5 ovarian was 37.5 µM; with OVCAR-3 ovarian it was 29.4 µM; in the assay on CAKI-1 renal, 28.6 µM; with UO-31 renal, 29.2 µM; in the assay with A549 NSCLC, over 86.1 µM; with CCRF-CEM leukemia it was 10 µM. Moreover, the TGI worked out at 24.2 µM in the assay with MALME-3M melanoma, 25.6 µM with SK-MEL-28 melanoma, 72.6 µM in the assay with SK-OV-3 ovarian and 19.3 µM in the assay with HOP-62 NSCLC.
Take `O=C(N/N=C/c1ccccc1)c1c(F)c(F)c(F)c(F)c1F`: the TGI with OVCAR-5 ovarian, with OVCAR-3 ovarian, in the assay on CAKI-1 renal, with UO-31 renal, in the assay on A549 NSCLC and in the assay on CCRF-CEM leukemia was over 100 µM in each case. Further, the TGI in the assay on MALME-3M melanoma, with SK-MEL-28 melanoma, in the assay with SK-OV-3 ovarian and with HOP-62 NSCLC was over 100 µM each time.
On to `Nc1c(C(=O)O)c2ccc([N+](=O)[O-])cc2c(=O)n1-c1nc2ccccc2s1`, for which the TGI in the assay on OVCAR-5 ovarian, with OVCAR-3 ovarian, in the assay with CAKI-1 renal, in the assay with UO-31 renal, in the assay with A549 NSCLC and in the assay on CCRF-CEM leukemia was over 100 µM in each case. For the same compound, the TGI with MALME-3M melanoma, in the assay on SK-MEL-28 melanoma, in the assay on SK-OV-3 ovarian and with HOP-62 NSCLC was over 100 µM each time.
For `CCOC(=O)CNC(=O)c1[nH]cnc1/N=N/N(C)C`, the TGI in the assay on OVCAR-5 ovarian, in the assay on OVCAR-3 ovarian, with CAKI-1 renal, with UO-31 renal, in the assay on A549 NSCLC and in the assay with CCRF-CEM leukemia was over 100 µM each time. Further, the TGI in the assay on MALME-3M melanoma, in the assay with SK-MEL-28 melanoma, in the assay with SK-OV-3 ovarian and in the assay on HOP-62 NSCLC was over 100 µM in each case.
